According to patent publication US20200404916A1, “METHOD OF REDUCING CROP DAMAGE” (BAYER AKTIENGESELLSCHAFT, priority 2018, published 2020):

Tests used:
winter wheat, TRZAW [1] = test: Post-emergence greenhouse pot test, visual scoring of crop damage on winter wheat; type: in vivo
Description: Post-emergence application was done when the plants had reached growth stage BBCH11 (BBCH is the international coding system for the growth stage of crops and weeds).
The safener (mefenpyr-diethyl) was formulated as wettable powder (WP).
The compounds were sprayed onto the green parts of the plants as an aqueous suspension at an equivalent water application rate of 300 l/ha.
(§1) The combination of herbicide and safener was applied as a tank mix.
(§2) After application, the test plants were kept in the greenhouse under good growth conditions.
(§3) Values in the table below are mean values from at least 3 replicates.
(§4) For the safener seed treatment, sufficient seeds were weighed into screw top glass bottles approximately twice the volume of the seeds.
(§5) The safener (mefenpyr-diethyl, formulated as suspension concentrate (SC)) was weighed out so that the required rates (g a.i./kg seed) would be obtained, dissolved in water (1 ml water per 10 g of seeds), and added to the seeds to produce a slurry.
(§6) The bottles were capped and then placed in an overhead shaker (set at medium speed for up to 1 hour) so that the seeds were evenly coated with the slurry. The bottles were uncapped and the seeds were sown as described above.
(§7) For the seed treatment process, the blind formulation (the SC formulation without the safener mefenpyr-diethyl) was used as seed treatment as described above.
Post-emergence application of the herbicide was done when the plants had reached growth stage BBCH11.
Post-emergence application was done when the plants had reached growth stage BBCH11.

winter wheat, TRZAW [2] = test: Pre-emergence greenhouse pot test, visual scoring of crop damage on winter wheat; type: in vivo
Protocol: as §4, §5, §6, §7
The compounds were sprayed to the soil surface as an aqueous suspension at an equivalent water application rate of 300 l/ha.
as §1, §2, §3

| Compound | % crop damage (winter wheat, TRZAW [1]; herbicide 200 g/ha post-emergence (BBCH11), no safener, 14 days after application, mean of at least 3 replicates) [%] | % crop damage (winter wheat, TRZAW [2]; herbicide 200 g/ha pre-emergence, no safener, 14 days after application, mean of at least 3 replicates) [%] | % crop damage (winter wheat, TRZAW [1]; safener 200 g/ha in tank mix alone, post-emergence (BBCH11), no herbicide, 14 days after application) [%] | % crop damage (winter wheat, TRZAW [1]; safener seed treatment 0.5 g/kg alone, no herbicide, post-emergence test series) [%] | % crop damage (winter wheat, TRZAW [2]; safener 200 g/ha in tank mix alone, pre-emergence, no herbicide, 14 days after application) [%] | % crop damage (winter wheat, TRZAW [2]; safener seed treatment 0.5 g/kg alone, no herbicide, pre-emergence test series) [%] |
| --- | --- | --- | --- | --- | --- | --- |
| Diflufenican [Herbicide post-em.] | 20 | 25 | – | – | – | – |
| CCOC(=O)C1=NN(c2ccc(Cl)cc2Cl)C(C)(C(=O)OCC)C1 (stereo not drawn) [Safener in tank mix, ethyl 1-(2,4-dichlorophenyl)-5-(ethoxycarbonyl)-5-methyl-2-pyrazoline-3-carboxylate] | – | – | 5 | 0 | 5 | 5 |
